Active and inactive are the calls of the source.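 Rule for the calls: active = z-score above 3 at 5 µM with at least 500 cells counted in the well; inconclusive = wells under 500 cells, flagged as cytotoxic or low count; inactive = the rest.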

By EC50 is commonly meant the concentration that produces a half-maximal response.

This experiment concerns MIN6 insulin promoter-GFP reporter, high-content imaging. The experiment is described as follows: insulin promoter activators in MIN6 cells, imaging, high-content screening, mouse beta cells (AID 1625).

As for `CC(=O)c1ccc2cccc3c2c1N=CN3C`, the EC50 is > 16 µM (inactive).
On to `CC(=O)n1c(C=Nc2ccccc2)c(O)c2ccccc21`, for which the EC50 was 10.1 µM (inactive).
Regarding `COc1cc(OC)c(-c2c3cc(O)c(=O)cc-3oc3cc(O)c(O)cc23)cc1OC`, the 50% effective concentration (EC50) is 8.54 µM.
To `COc1cc(N2CCCC2)c(OC)cc1/C=C(/C#N)c1cccc(Br)c1` belongs 4.79 µM; to `Cc1cccc(N=Cc2[nH]c3ccc(Br)c(Cl)c3c2O)c1`, 4.86 µM; to `N#CC(C#N)=C1C=C2C=C(N3CCCCC3)CCC2CC1` (stereo not given), 0.643 µM.
For `CC[n+]1c(/C=C/C=C/N(C(C)=O)c2ccccc2)sc2cc(OC)ccc21`, the EC50 was 0.887 µM.
In the case of `N#C/C(=C\N1CCN(Cc2ccc3c(c2)OCO3)CC1)c1nc2ccccc2s1` it was > 16 µM (inactive); in that of `CN1CCS/C1=C/C=C1/SC(=S)N(Cc2ccccc2)C1=O`, > 16 µM (inactive); in that of `Cc1ccc(CNc2ccc3c(c2)OCO3)c(C)c1`, > 16 µM (inactive).
For the molecule `COc1ccc2c(c1)NC(c1ccc(N(C)C)cc1)c1cccn1-2` (stereo not given), the EC50 was > 16 µM (inactive).
As to `CCc1cccc2cc3c(N)c(C(=O)Nc4ccc(S(=O)(=O)N5CCCC5)cc4)sc3nc12`, the EC50 is 10.2 µM (inactive).
Take `CCCCn1c(O)c(C(=O)/C=C/c2c[nH]c3ccccc23)c(=O)[nH]c1=O`: the EC50 is > 16 µM (inactive).
As to `Cc1cc(N/N=C/c2ccc([N+](=O)[O-])o2)nc2ccccc12`, the EC50 was > 16 µM (inactive).
Turning to `CCN(CC)c1ccc(/C=C/C(=O)c2ccc(Br)cc2)cc1`, the EC50 was 7.06 µM.
To `CCCCn1nc(-c2ccccc2)c2nc3ccccc3nc21` belongs > 16 µM (inactive).
To `CN1C(=S)N(c2cccnc2)C(=O)/C1=C\c1ccc(N(C)C)cc1` belongs > 16 µM (inactive).
For the molecule `COC(=O)c1cc2c(-c3ccccc3)cc3ccccn3c-2c1C(=O)OC`, the EC50 was > 16 µM (inactive).
To `CN1CC=C2C(C#N)=C(N)C(C#N)(C#N)[C@H](c3cccc(Cl)c3)C2C1` (stereo not given in full) belongs 8.14 µM; to `CN1CCN(C2=CC3=CC(=C(C#N)C#N)CCC3CC2)CC1` (stereo not given), 3.41 µM.
`CC(=O)C1=C(C)NC(SCC(=O)c2ccc(Cl)c(Cl)c2)=C(C#N)C1c1ccco1` (stereo not given): the EC50 is > 16 µM (inactive).
For `CC(C)OC(=O)CN1C(=O)S/C(=C/c2ccc(N3CCCCC3)o2)C1=O`, the EC50 was 1.7 µM.
Turning to `O=C(/C=C/c1cn(CC(O)CN2CCCCCC2)c2ccccc12)c1cccs1` (stereo not given), the EC50 was > 16 µM (inactive).
Regarding `CC(C)(C)C(=O)/C=c1\s/c(=C\c2ccc(-c3ccc([N+](=O)[O-])cc3)o2)c(=O)n1CC(=O)NC(N)=O`, the EC50 was 0.829 µM.
For `COC(=O)c1cc(NC(=O)c2ccccc2)c(=O)oc1/C=C/Nc1ccc(Oc2ccccc2)cc1`, the EC50 is 6.49 µM.
For the molecule `Cc1cc2nc3c(=O)n(C4CCCCC4)c(=O)[nH]c3nc2cc1N`, the concentration for a half-maximal effect (EC50) was 8.73 µM.
As for `Nc1c(C(=O)C2CC2)sc2nc(-c3cccs3)cc(C(F)(F)F)c12`, the EC50 was 4.16 µM.
Consider `CC(C)(C)c1ccc(OCC(=O)Nc2ccc3c4c(cccc24)C(=O)NC3=O)cc1`, for which the EC50 was > 16 µM (inactive).
To `O=C1c2cccc3c(O)ccc(c23)C(=O)N1Cc1ccccc1` belongs 5.65 µM.
Take `CCOC(=O)C1=C(C)NC(=O)NC1c1ccc(N2CCC(c3ccccc3)=N2)cc1` (stereo not given): the EC50 was > 16 µM (inactive).
On to `Cc1nn(C)cc1N1C(=O)c2cccc3c(N)ccc(c23)C1=O`, for which the EC50 was > 16 µM (inactive).
With `COc1ccc(C2C(C(C)=O)=C(C)N=c3s/c(=C\c4cc(C)n(C)c4C)c(=O)n32)c(OC)c1` (stereo not given), the EC50 was 8.89 µM.
With `CN(C)c1ccc(/C=C/C(=O)c2c(O)c3ccccc3oc2=O)cc1`, the EC50 was 0.726 µM.
As to `CCCN1C=CC(=C/C=C(\C#N)C(=O)OCC)C=C1`, the EC50 is > 16 µM (inactive).
In the case of `CN(C)c1ccc(/C=C2\SC(=S)N(Nc3ncc(C(F)(F)F)cc3Cl)C2=O)cc1` it was 2.55 µM.
As for `O=[N+]([O-])c1ccc(N/N=C/c2cn(Cc3ccc(F)cc3)c3ccccc23)nc1`, the EC50 is > 16 µM (inactive).
In the case of `C=CCN1C(=O)/C(=C\C=C2\N(C)c3ccccc3C2(C)C)SC1=S` it was > 16 µM (inactive); in that of `CC(=O)Nc1sc(/C(C#N)=C\c2cccc(Cl)c2)nc1-c1ccc(C)cc1`, 8.92 µM.
With `CCCCCn1nc(-c2ccccc2)c2nc3ccccc3nc21`, the concentration giving a half-maximal response (EC50) was 8.72 µM.
On to `Nc1c(C(=O)c2ccccc2)sc2nsc(SCCN3CCCC3)c12`, for which the EC50 is 8.41 µM.
Turning to `COc1ccc(/C(O)=C/c2nc3ccc(C(=O)NCCc4cccc(C)c4)cc3[nH]c2=O)cc1OC`, the EC50 was > 16 µM (inactive).
With `Cc1ccc(/C=[N+](\[O-])c2ccc(N(C)C)cc2)c2nsnc12`, the EC50 was > 16 µM (inactive).
To `CCCN1C(=O)/C(=C/C=C2\N(CC)c3ccccc3C2(C)C)SC1=S` belongs > 16 µM (inactive); to `CCCOc1cc(N(CC)CC)ccc1/C=C(/C#N)c1nc2ccc(C)cc2[nH]1`, 9.89 µM; to `N#CC1CC(c2ccc([N+](=O)[O-])cc2)=NN1c1ccc([N+](=O)[O-])cc1` (stereo not given), > 16 µM (inactive).
As to `CCCN1C=CC(=CC=C(C#N)C#N)C=C1`, the EC50 is 10.4 µM (inactive).
For `Cc1noc(/C=C/c2ccc(-c3ccccc3Cl)o2)c1[N+](=O)[O-]`, the 50% effective concentration (EC50) is 5.6 µM.
`CCCCCCN1C=CC(=C/C=C(\C#N)C(=O)OCC)C=C1`: the EC50 was 11 µM (inactive).
On to `N#C/C(=C\c1ccc(N2CCCCC2)o1)C(N)=O`, for which the EC50 was 10.8 µM (inactive).
To `CCCCN(C)C1=CC2=CC(=C(C#N)C#N)CCC2CC1` (stereo not given) belongs under 0.25 µM.
Turning to `Cc1ccc(N2C(=O)c3cccc4c(N5CCN(C)CC5)ccc(c34)C2=O)c2cccnc12`, the EC50 was 10.3 µM (inactive).
In the case of `CCN1CCc2c(sc(NC(=S)NC(=O)c3ccc(Cl)cc3)c2C(N)=O)C1`, the EC50 was 14.1 µM (inactive).
In the case of `CN1CC=C2C(C#N)=C(N)C(C#N)(C#N)C(c3cccc(Cl)c3Cl)C2C1` (stereo not given) it was 11.9 µM (inactive).
Consider `Cc1csc(NC(=O)c2sc3nc(-c4cccs4)ccc3c2N)n1`, for which the EC50 was > 16 µM (inactive).
As for `Cc1cc2c(C(F)(F)F)cc(=O)oc2c2c1NCCC2`, the EC50 is > 16 µM (inactive).
Consider `COc1ccc(N=C2NC(=O)S/C2=C\c2ccc(N(C)C)cc2)cc1`, for which the EC50 was > 16 µM (inactive).
As to `Cc1ccc(/C(C#N)=C\c2ccc(N3CCOCC3)o2)cc1`, the EC50 is > 16 µM (inactive).
Consider `N#Cc1c(NC(=S)NC(=O)c2ccccc2)sc2c1CCN(CCc1ccccc1)C2`, for which the EC50 is 7.1 µM.
On to `O=C(OCCN1C(=O)c2cccc3c(N4CCOCC4)ccc(c23)C1=O)c1ccc(Cl)cc1Cl`, for which the EC50 is 12.1 µM (inactive).
Take `COC(=O)c1cc2c(-c3ccccc3)c(C)c3ccccn3c-2c1C(=O)OC`: the EC50 is > 16 µM (inactive).
Regarding `CN1C2CCC1/C(=C/c1cccn1C)C(=O)/C2=C\c1cccn1C`, the EC50 was > 16 µM (inactive).
With `CC1=C/C(=C\C=C(C#N)C#N)N(C)c2ccccc21`, the EC50 is > 16 µM (inactive).
To `CC(C)(C)NC(=S)N/N=C\c1ccc(-c2ccc([N+](=O)[O-])cc2)o1` belongs 14.3 µM (inactive).
To `N#C/C(=C\c1ccc(N2CCOCC2)o1)c1nc2ccccc2[nH]1` belongs 3.42 µM; to `N#C/C(=C\c1ccc(N2CCCCC2)o1)C(=O)Nc1cccc(Br)c1`, 0.605 µM.

The values are drawn from PubChem BioAssay AID1625 (Sanford-Burnham Center for Chemical Genomics, 2009).
